Experimental data published in patent US20040127492A1 (Pharmacia Corporation, priority 2002, published 2004).
Read-outs that look alike come from different tables or passages of the source.

What was measured:
MAPKAPK2 (MK-2) = MAPKAPK2 (MK-2) (Homo sapiens, UniProt P49137); assay: Determination of MK-2 IC50 (HSP-peptide phosphorylation, anion exchange resin capture assay); assay type: biochemical
Summary of the method: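 Radiometric peptide assay: 15 nM p38α-activated MK-2, HSP-peptide, 0.03 mM ATP with [γ33P]ATP, 2% DMSO, pH 7.5, 30° C for 30 min; unreacted ATP removed on AG 1×8 resin before counting. Six concentrations in ten-fold steps, each in triplicate, gave IC50 in μM.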

MK-3 = MK-3 (Homo sapiens, UniProt Q16644); assay: MK-3 inhibition IC50 (similar method to MK-2, with appropriate modifications); assay type: biochemical
Chain of MK-3 (Q16644 whole entry, species assumed): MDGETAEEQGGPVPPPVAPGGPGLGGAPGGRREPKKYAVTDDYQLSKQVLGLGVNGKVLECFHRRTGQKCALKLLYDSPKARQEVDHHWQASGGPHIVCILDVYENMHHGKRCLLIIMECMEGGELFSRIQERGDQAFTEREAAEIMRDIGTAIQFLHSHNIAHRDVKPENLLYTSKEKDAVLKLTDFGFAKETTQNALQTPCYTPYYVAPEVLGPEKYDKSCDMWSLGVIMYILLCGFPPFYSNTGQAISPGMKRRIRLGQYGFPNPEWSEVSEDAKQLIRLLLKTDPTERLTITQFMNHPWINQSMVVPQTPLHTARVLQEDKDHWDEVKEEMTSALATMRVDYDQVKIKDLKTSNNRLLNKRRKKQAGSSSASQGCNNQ

[1] = Table 1, phenoxypyrazole MK-2 inhibitors, read-out: MK-2 Avg, IC50
[2] = Table 1, phenoxypyrazole MK-2 inhibitors, read-out: MK-3 Avg. IC50
[3] = Table 2, pyrazolylpyrazole MK-2 inhibitors, read-out: MK-2 Avg. IC50
[4] = Table 2, pyrazolylpyrazole MK-2 inhibitors, read-out: MK-3 Avg. IC50
[5] = Table 5, other cyclic pyrazole MK-2 inhibiting compounds, read-out: MK-2 Avg. IC50
[6] = Table 5, other cyclic pyrazole MK-2 inhibiting compounds, read-out: MK-3 Avg. IC50
[7] = Table 4, pyrimidylpyrazole MK-2 inhibitors, read-out: MK-2 Avg. IC50
[8] = Table 4, pyrimidylpyrazole MK-2 inhibitors, read-out: NK-3 Avg. IC50

Chain of MAPKAPK2 (MK-2) (P49137 whole entry, species assumed): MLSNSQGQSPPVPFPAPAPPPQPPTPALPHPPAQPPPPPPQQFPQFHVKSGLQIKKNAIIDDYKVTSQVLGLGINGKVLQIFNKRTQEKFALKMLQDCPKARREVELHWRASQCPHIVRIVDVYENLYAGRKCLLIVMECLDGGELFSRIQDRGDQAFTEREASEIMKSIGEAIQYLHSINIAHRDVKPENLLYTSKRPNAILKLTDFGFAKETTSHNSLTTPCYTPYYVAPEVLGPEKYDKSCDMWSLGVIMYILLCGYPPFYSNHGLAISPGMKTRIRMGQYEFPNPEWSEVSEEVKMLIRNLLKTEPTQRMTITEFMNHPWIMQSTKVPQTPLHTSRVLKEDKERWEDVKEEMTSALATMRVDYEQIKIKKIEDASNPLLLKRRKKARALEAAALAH

SMILES | IC50 (MAPKAPK2 (MK-2); read-out: MK-2 Avg. IC50) [µM] | IC50 (MK-3; read-out: MK-3 Avg. IC50) [µM] | IC50 (MAPKAPK2 (MK-2); [1]) [µM] | IC50 (MK-3; [2]) [µM] | also measured
O=C(O)c1c2c(nn1CCCNCCc1ccc(-c3ccccc3C(F)(F)F)cc1)-c1ccncc1CC2 [Example 70] | 0.801 | 44.8 |  |  | 
O=C(O)c1c2c(nn1CCCNCCC(c1ccccc1)c1ccccc1)-c1ccncc1CC2 [Example 80] | 1.18 | 30.3 |  |  | 
NCCCn1nc2c(c1C(=O)O)CCc1cc(O)c(-c3ccc(F)c(F)c3)cc1-2 [Example 17] |  |  | 14.2 | 167 | 
COc1cc2c(cc1OC)-c1n[nH]c(C(=O)NNc3ccc(S(N)(=O)=O)cc3)c1CC2 [Example 177] |  |  | > 200 | > 200 | 
O=C(O)c1c2c(nn1CCCNCCc1ccc(-c3ccncc3)cc1)-c1ccncc1CC2 [Example 37] | 0.211 | 7.71 |  |  | 
NCCCn1nc2c(c1C(=O)O)CCc1cc(O)c(-c3ccc([N+](=O)[O-])cc3)cc1-2 [Example 9] |  |  | 4.91 | 104 | 
NC(=O)c1nn(CCO)c2c1CCc1[nH]ncc1-2 [Example 23] |  |  |  |  | IC50 (MAPKAPK2 (MK-2); [3]): 72.2 µM; IC50 (MK-3; [4]): ≥ 200 µM
O=C(O)c1c2c(nn1CCCNCCc1ccc(/C=C/c3ccccc3)cc1)-c1cc(/C=C/c3ccccc3)ncc1CC2 [Example 35] |  |  |  |  | IC50 (MAPKAPK2 (MK-2); [5]): 0.528 µM; IC50 (MK-3; [6]): > 20 µM
O=C(O)c1c2c(nn1CCCNCCc1ccc(-c3cccc(C(F)(F)F)c3)cc1)-c1ccncc1CC2 [Example 21] | 0.103 | 10.4 |  |  | 
CC1Cc2cc(O)ccc2-c2n[nH]c(C(N)=O)c21 (stereo not drawn) [Example 68] |  |  | 173 | 196 | 
NCCCn1nc2c(c1C(=O)O)CCc1cnc(-c3ccc(C(F)(F)F)cc3)cc1-2 [Example 15] | 0.0567 | 0.209 |  |  | 
COc1ccc2c(c1)CCc1c-2n[nH]c1C(=O)NN [Example 180] |  |  | > 200 | > 200 | 
CCOC(=O)c1nn(CC(F)(F)F)c2c1CCc1[nH]ncc1-2 [Example 80] |  |  |  |  | IC50 (MAPKAPK2 (MK-2); [3]): ≥ 200 µM; IC50 (MK-3; [4]): 124 µM
O=C(O)c1c2c(nn1CCCNCCc1ccc(-c3ccccc3)cc1)-c1ccncc1CC2 [Example 44] | 0.316 | 5.01 |  |  | 
Nc1cc2c(cc1O)CCc1c-2nn2c1C(=O)NCCC2 [Example 45] |  |  | 88.7 | > 200 | 
NCCCn1nc2c(c1C(=O)O)CCc1cc(O)c(-c3ccc(Cl)cc3)cc1-2 [Example 15] |  |  | 11 | 109 | 
O=C(O)c1c2c(nn1CCCNCCc1ccc(Cl)cc1Cl)-c1ccncc1CC2 [Example 47] | 0.347 | 6.59 |  |  | 
CCOC(=O)c1c2c(nn1CCCN)-c1c(SCc3ccccc3)n[nH]c1CC2 [Example 44] |  |  |  |  | IC50 (MAPKAPK2 (MK-2); [3]): 181 µM; IC50 (MK-3; [4]): ≥ 200 µM
NC(=O)c1[nH]nc2c1CCc1c-2cnn1CCO [Example 70] |  |  |  |  | IC50 (MAPKAPK2 (MK-2); [3]): ≥ 200 µM; IC50 (MK-3; [4]): ≥ 200 µM
COc1cc2c(cc1-c1ccc(Cl)cc1)-c1nn(CCCNC(=O)OC(C)(C)C)c(C(=O)O)c1CC2 [Example 49] |  |  | 98.1 | 161 | 
COC(=O)c1c2c(nn1CCCNC(=O)OC(C)(C)C)-c1cc(Br)c(OC)cc1CC2 [Example 184] |  |  | > 200 | > 200 | 
CN(C)c1cccc(-c2cc3c(cn2)CCc2c-3nn3c2C(=O)NCCC3)c1 [Example 53] | 0.483 | 4.92 |  |  | 

SMILES | IC50 (MAPKAPK2 (MK-2); read-out: MK-2 Avg. IC50) [µM] | IC50 (MK-3; read-out: MK-3 Avg. IC50) [µM] | IC50 (MAPKAPK2 (MK-2); [1]) [µM] | IC50 (MK-3; [2]) [µM] | also measured
O=C(O)c1c2c(nn1CCCNCCc1ccc(-c3ccc(C(F)(F)F)cc3)cc1)-c1ccncc1CC2 [Example 26] | 0.147 | 9.04 |  |  | 
O=C(O)c1c2c(nn1CCCNCCc1ccc(-c3csc4ccccc34)cc1)-c1ccncc1CC2 [Example 60] | 0.575 | 15.6 |  |  | 
CN1CCN(c2cc3c(cn2)CCc2c-3nn3c2C(=O)NCC3)CC1 [Example 245] | 96.8 | 108 |  |  | 
O=C(O)c1c2c(nn1CCCNCCc1ccc(Cl)s1)-c1ccncc1CC2 [Example 57] | 0.559 | 8.85 |  |  | 
O=C1NCCn2nc3c(c21)CCc1cnc(/C=C/c2ccc(C(F)(F)F)cc2)cc1-3 [Example 9] |  |  |  |  | IC50 (MAPKAPK2 (MK-2); [5]): 2.26 µM; IC50 (MK-3; [6]): > 20 µM
NCCCn1nc2c(c1C(=O)O)CCc1cc(O)c(Br)cc1-2 [Example 8] |  |  | 3.75 | > 200 | 
NCCCn1nc2c(c1C(=O)O)CCc1cnc(-c3ccc4ccccc4c3)cc1-2 [Example 5] | 0.023 | 0.0698 |  |  | 
CCOc1ccc(CCNCCCn2nc3c(c2C(=O)O)CCc2cnccc2-3)cc1 [Example 74] | 0.931 | 34.8 |  |  | 
O=C1NCCn2nc3c(c21)CCc1cc(O)c(-c2cccc([N+](=O)[O-])c2)cc1-3 [Example 7] |  |  | 3 | > 200 | 
N#Cc1cccc(-c2cc3c(cn2)CCc2c-3nn(CCCN)c2C(=O)O)c1 [Example 8] | 0.0302 | 0.226 |  |  | 
COC(=O)c1nn(-c2ccc(S(N)(=O)=O)cc2)c2c1CCc1cc(OC)ccc1-2 [Example 172] |  |  | > 200 | > 200 | 
O=C1NCCn2nc3c(c21)CCc1cnc(-c2cccc4cccnc24)cc1-3 [Example 171] | 14 | 74.8 |  |  | 
Cn1nc2c(c1C(=O)O)CCc1cc(O)ccc1-2 [Example 34] |  |  | 44.4 | > 200 | 
N#CC(N)CCn1nc2c(c1C(=O)O)CCc1cnccc1-2 (stereo not drawn) [Example 207] | 36.9 | 186 |  |  | 
NC(=O)c1[nH]nc2c1CCc1c-2ccc(O)c1Br [Example 20] |  |  | 17.6 | > 200 | 
COC(=O)c1nn(-c2ccc(Cl)cc2)c2c1CCc1cc(OC)ccc1-2 [Example 159] |  |  | > 200 | > 200 | 
C=CCn1nc2c(c1C(=O)O)CCc1cc(O)ccc1-2 [Example 31] |  |  | 35.6 | > 200 | 
N#CCCCn1nc2c(c1C(=O)O)CCc1[nH]ncc1-2 [Example 32] |  |  |  |  | IC50 (MAPKAPK2 (MK-2); [3]): 116 µM; IC50 (MK-3; [4]): ≥ 200 µM
CS(=O)(=O)c1cccc(-c2cc3c(cn2)CCc2c-3nn(CCCN)c2C(=O)O)c1 [Example 11] | 0.0391 | 0.453 |  |  | 
NCCCn1nc2c(c1C(=O)O)CCc1cnc(-c3ccc4c(c3)OCO4)nc1-2 [Example 2] |  |  |  |  | IC50 (MAPKAPK2 (MK-2); [7]): 0.295 µM; IC50 (MK-3; [8]): 4.61 µM
CC1Cc2c(n[nH]c2C(=O)O)-c2ccc(O)cc21 (stereo not drawn) [Example 48] |  |  | 97.1 | > 200 | 
NCCn1nc2c(c1C(=O)O)CCc1cnc(/C=C/c3ccccc3)cc1-2 [Example 37] |  |  |  |  | IC50 (MAPKAPK2 (MK-2); [5]): 0.0413 µM; IC50 (MK-3; [6]): 1.21 µM

SMILES | IC50 (MAPKAPK2 (MK-2); read-out: MK-2 Avg. IC50) [µM] | IC50 (MK-3; read-out: MK-3 Avg. IC50) [µM] | IC50 (MAPKAPK2 (MK-2); [1]) [µM] | IC50 (MK-3; [2]) [µM] | also measured
O=C(O)c1n[nH]c2c1CC(c1ccccc1)c1cc(O)ccc1-2 (stereo not drawn) [Example 113] |  |  | > 200 | > 200 | 
COc1ccc2c(c1)CCc1c(C(=O)O)nn(-c3ccc(Cl)cc3)c1-2 [Example 160] |  |  | > 200 | > 200 | 
COc1ccc(-c2cc3c(cn2)CCc2c-3nn(CCCN)c2C(=O)O)cc1 [Example 10] | 0.0371 | 0.995 |  |  | 
CN(C)c1ccc(-c2cc3c(cn2)CCc2c-3nn3c2C(=O)NCC3)cc1 [Example 42] | 0.272 | 36 |  |  | 
O=C(O)c1c2c(nn1CCCNCCCc1ccc(Cl)cc1)-c1ccncc1CC2 [Example 52] | 0.479 | 34.3 |  |  | 
C=CCn1nc(C(N)=O)c2c1-c1cn[nH]c1CC2 [Example 26] |  |  |  |  | IC50 (MAPKAPK2 (MK-2); [3]): 95.1 µM; IC50 (MK-3; [4]): 49.3 µM
C=CCSc1n[nH]c2c1-c1nn(CCCN)c(C(=O)OCC)c1CC2 [Example 31] |  |  |  |  | IC50 (MAPKAPK2 (MK-2); [3]): 114 µM; IC50 (MK-3; [4]): ≥ 200 µM
COc1ccc2c(c1)CCc1c(C(=O)O)nn(-c3ccc(S(C)(=O)=O)cc3)c1-2 [Example 165] |  |  | > 200 | > 200 | 
COc1ccc(-c2cc3c(cn2)CCc2c-3nn3c2C(=O)NCCC3)cc1 [Example 25] | 0.142 | 6.52 |  |  | 
COC(=O)c1[nH]nc2c1CCc1cc(OC)c(Br)cc1-2 [Example 183] |  |  | > 200 | > 200 | 
O=C(O)c1c2c(nn1CCCNC(c1ccccc1)(c1ccccc1)c1ccccc1)-c1nc(-c3cnc4ccccc4c3)ncc1CC2 [Example 6] |  |  |  |  | IC50 (MAPKAPK2 (MK-2); [7]): 2.16 µM; IC50 (MK-3; [8]): 154 µM
O=C(O)c1c2c(nn1CCCNCCc1ccc(Br)cc1)-c1cc(/C=C/c3ccccc3)ncc1CC2 [Example 34] |  |  |  |  | IC50 (MAPKAPK2 (MK-2); [5]): 0.28 µM; IC50 (MK-3; [6]): 2.02 µM
COc1cc2c(cc1-c1cccn1C(=O)OC(C)(C)C)-c1nn(CCCNC(=O)OC(C)(C)C)c(C(=O)O)c1CC2 [Example 58] |  |  | 148 | > 200 | 
C=CCC1Cc2c(C(=O)O)n[nH]c2-c2ccc(O)cc21 (stereo not drawn) [Example 60] |  |  | 148 | > 200 | 
O=C1NCCn2nc3c(c21)CCc1cnc(/C=C/c2ccc(Cl)cc2)cc1-3 [Example 6] |  |  |  |  | IC50 (MAPKAPK2 (MK-2); [5]): 0.536 µM; IC50 (MK-3; [6]): > 20 µM
O=C1NCCn2nc3c(c21)CCc1cnc(/C=C/c2ccccc2F)cc1-3 [Example 11] |  |  |  |  | IC50 (MAPKAPK2 (MK-2); [5]): 4.46 µM; IC50 (MK-3; [6]): > 200 µM
O=C(O)c1c2c(nn1CCCNCCc1ccc(-c3cccc(Cl)c3)cc1)-c1ccncc1CC2 [Example 24] | 0.13 | 5.85 |  |  | 
CCOC(=O)c1c2c(nn1C)-c1ccc(O)cc1CC2 [Example 157] |  |  | > 200 | > 200 | 
O=C(O)c1c2c(nn1CCCNCCc1ccc([N+](=O)[O-])cc1)-c1ccncc1CC2 [Example 69] | 0.765 | 11.9 |  |  | 
C=CCn1nc2c(c1C(N)=O)CCc1cc(OCOCCOC)ccc1-2 [Example 80] |  |  | > 200 | > 200 | 
NCCCn1nc2c(c1C(=O)O)CCc1cc(O)c(-c3cccc(Cl)c3)cc1-2 [Example 13] |  |  | 10.5 | 121 | 
COc1cc2c(cc1-c1ccc(C(C)(C)C)cc1)-c1nn(CCCNC(=O)OC(C)(C)C)c(C(=O)O)c1CC2 [Example 42] |  |  | 65.7 | > 200 | 
